PMC5006990 (PLoS ONE, 2016)
Converted amounts (≈) assume the structure as drawn. Where two headings read alike, the source gives them in different places.

Columns and labels:
Mtb = conditions: cited from earlier work; for inhibition of the growth of Mtb: in words
Mtb C-31 = test: microbe, parasite or virus in culture; assay type: cell-based; conditions: Mycobacterium tuberculosis, C31, read-out: MIC (μg/mL) Mtb C-31
[1] = test system: M. tuberculosis ATCC 35801 (strain Erdman); test: Microtiter broth dilution MIC, Mtb Erdman; conditions: for MIC (μg/mL) Mtb: Erdmann strain (ATCC 35801), screening rounds 1 and 2; for MIC (μg/mL) Mtb Erdman: Table 1 panel
Mtb 352 = test: microbe, parasite or virus in culture; assay type: cell-based, Mycobacterium tuberculosis; conditions: Mycobacterium tuberculosis, 352, read-out: MIC (μg/mL) Mtb 352
Mtb 56 = test: microbe, parasite or virus in culture; assay type: cell-based, Mycobacterium tuberculosis; conditions: Mycobacterium tuberculosis, 56, read-out: MIC (μg/mL) Mtb 56
Mtb 365 = test: microbe, parasite or virus in culture; assay type: cell-based, Mycobacterium tuberculosis; conditions: Mycobacterium tuberculosis, 365, read-out: MIC (μg/mL) Mtb 365
Mtb 5 = test: microbe, parasite or virus in culture; assay type: cell-based, Mycobacterium tuberculosis; conditions: Mycobacterium tuberculosis, 5, read-out: MIC (μg/mL) Mtb 5
MtbDHFR [2] = biological target: T1, MtbDHFR (Mycobacterium tuberculosis, UniProt P9WNX1); conditions: in words; cited from earlier work
HuDHFR = biological target: T2, HuDHFR (Homo sapiens, UniProt P00374); test: Human DHFR enzyme inhibition (NADPH oxidation at 340 nm); assay type: biochemical; conditions: triplicate, mean ± SD
T2 construct: made in house
T2 sequence (P00374 1-187): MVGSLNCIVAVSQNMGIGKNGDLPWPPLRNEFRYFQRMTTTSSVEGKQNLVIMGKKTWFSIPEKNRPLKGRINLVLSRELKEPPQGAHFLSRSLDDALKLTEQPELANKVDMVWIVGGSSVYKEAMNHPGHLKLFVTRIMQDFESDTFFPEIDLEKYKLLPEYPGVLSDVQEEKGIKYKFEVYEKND

MtbDHFR [3] = biological target: T1, MtbDHFR; test: biochemical; assay type: biochemical
[4] = test system: M. smegmatis (Overexpressing DHFR Strain 1); test: MIC against M. smegmatis overexpressing DHFR, strain 1; conditions: Mycolicibacterium smegmatis, read-out: MIC (µg/mL) M. smegmatis (Overexpressing DHFR Strain 1)
[5] = test system: M. smegmatis (parent strain); test: MIC against M. smegmatis parent strain; conditions: Mycolicibacterium smegmatis, read-out: MIC (µg/mL) M. smegmatis (parent strain)
Mtb 276 = test: microbe, parasite or virus in culture; assay type: cell-based, Mycobacterium tuberculosis; conditions: Mycobacterium tuberculosis, 276, read-out: MIC (μg/mL) Mtb 276
[6] = test system: M. smegmatis (Overexpressing DHFR Strain 2); test: MIC against M. smegmatis overexpressing DHFR, strain 2; conditions: Mycolicibacterium smegmatis, read-out: MIC (µg/mL) M. smegmatis (Overexpressing DHFR Strain 2)

T1 sequence (P9WNX1 whole entry): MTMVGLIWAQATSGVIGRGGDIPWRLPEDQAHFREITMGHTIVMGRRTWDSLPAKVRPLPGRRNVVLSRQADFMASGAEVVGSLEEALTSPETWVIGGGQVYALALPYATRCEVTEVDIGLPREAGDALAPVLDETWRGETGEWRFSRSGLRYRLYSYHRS

| SMILES | MIC (Mtb C-31) [µg/mL] | MIC (μg/mL) Mtb [1] [µg/mL] | MIC (μg/mL) Mtb Erdman [1] [µg/mL] | MIC (Mtb 352) [µg/mL] | MIC (Mtb 56) [µg/mL] | MIC (Mtb 365) [µg/mL] | MIC (Mtb 5) [µg/mL] | other results |
| --- | --- | --- | --- | --- | --- | --- | --- | --- |
| Nc1nc(N)c2c(Cl)c(CNc3ccc(C(=O)O)cc3)ccc2n1 [DQn-1] |  |  |  |  |  |  |  | MIC (Mtb; Glaxo antifolate collection screen): 0.03 µM; MIC (Mtb; Glaxo antifolate library screen): 0.03 µg/mL |
| NNC(=O)c1ccncc1 [INH, Isoniazid, reference compound] | 4 (≈ 29.2 µM) | 0.03 (≈ 0.219 µM) | 0.125 (≈ 0.911 µM) | 1 (≈ 7.29 µM) | 1 (≈ 7.29 µM) | 2 (≈ 14.6 µM) | 4 (≈ 29.2 µM) |  |
| CN(Cc1cnc2nc(N)nc(N)c2n1)c1ccc(C(=O)N[C@@H](CCC(=O)O)C(=O)O)cc1 [Methotrexate] |  |  |  |  |  |  |  | inhibition of the growth of Mtb (Mtb): fail to inhibit the growth |
| COc1cc(Cc2cnc(N)nc2N)cc(OC)c1OC [TMP, reference compound] |  | 256 (≈ 882 µM) |  |  |  |  |  |  |
| COc1cc(NCc2ccc3nc(N)nc(N)c3c2C)cc(OC)c1OC [Trimetrexate] |  | 4 (≈ 10.8 µM) |  |  |  |  |  | inhibition of the MtbDHFR enzyme (MtbDHFR [2]): potent inhibitors; inhibition of the growth of Mtb (Mtb): fail to inhibit the growth |
| CCc1nc(N)nc(N)c1C#CCc1cc(OC)c(OC)c(-c2ccncc2)c1 [UCP1039] |  | 32 (≈ 82.2 µM) |  |  |  |  |  | IC50 (HuDHFR): 495 ± 58 nM; IC50 (MtbDHFR [3]; triplicate, mean ± SD, read-out: IC50 (nM) MtbDHFR): 297 ± 38 nM |
| CCc1nc(N)nc(N)c1C#C[C@H](C)c1cc(-c2ccncc2)ccc1OC [UCP1063] |  | 2 (≈ 5.36 µM) |  |  |  |  |  |  |
| CCc1nc(N)nc(N)c1C#CC(C)c1cc(-c2cncn2C)ccc1OC (stereo not shown) [UCP1084] | 8 (≈ 21.3 µM) | 2 (≈ 5.31 µM) | 4 (≈ 10.6 µM) | 4 (≈ 10.6 µM) | 4 (≈ 10.6 µM) | 4 (≈ 10.6 µM) | 4 (≈ 10.6 µM) | MIC [4]: 64 µg/mL (≈ 170 µM); MIC [5]: 1 µg/mL (≈ 2.66 µM); MIC (Mtb 276): 4 µg/mL (≈ 10.6 µM); MIC [6]: 16 µg/mL (≈ 42.5 µM) |
| CCc1nc(N)nc(N)c1C#C[C@H](C)c1cc2c(c(-c3ccncc3)c1)OCO2 [UCP1098] | 16 (≈ 41.3 µM) | 4 (≈ 10.3 µM) | 8 (≈ 20.6 µM) | 8 (≈ 20.6 µM) | 8 (≈ 20.6 µM) | 4 (≈ 10.3 µM) | 8 (≈ 20.6 µM) | IC50 (MtbDHFR [3]): 206 ± 6 nM; MIC [4]: 64 µg/mL (≈ 165 µM); MIC [5]: 0.5 µg/mL (≈ 1.29 µM); MIC (Mtb 276): 8 µg/mL (≈ 20.6 µM); MIC [6]: 32 µg/mL (≈ 82.6 µM) |
| CCc1nc(N)nc(N)c1C#CC(C)c1cc2c(c(-c3cncn3C)c1)OCO2 (stereo not shown) [UCP1102] | 8 (≈ 20.5 µM) | 2 (≈ 5.12 µM) | 4 (≈ 10.2 µM) | 4 (≈ 10.2 µM) | 8 (≈ 20.5 µM) | 8 (≈ 20.5 µM) | 8 (≈ 20.5 µM) | MIC [4]: 64 µg/mL (≈ 164 µM); MIC [5]: 1 µg/mL (≈ 2.56 µM); MIC (Mtb 276): 4 µg/mL (≈ 10.2 µM); MIC [6]: 32 µg/mL (≈ 82 µM) |
| CCc1nc(N)nc(N)c1C#CCc1cc(-c2ccc(C(=O)O)cc2)ccc1OC [UCP1106] | > 32 | 4 (≈ 9.94 µM) | 16 (≈ 39.8 µM) | 16 (≈ 39.8 µM) | 16 (≈ 39.8 µM) | 4 (≈ 9.94 µM) | 8 (≈ 19.9 µM) | MIC [4]: > 32 µg/mL; MIC [5]: 8 µg/mL (≈ 19.9 µM); MIC (Mtb 276): 16 µg/mL (≈ 39.8 µM); MIC [6]: > 32 µg/mL |
| CCc1nc(N)nc(N)c1C#C[C@H](C)c1cc(-c2ccc(C(=O)O)cc2)ccc1OC [UCP1163] |  | 16 (≈ 38.4 µM) |  |  |  |  |  |  |
| CCc1nc(N)nc(N)c1C#C[C@@H](C)c1cc(-c2ccc(C(=O)O)cc2)ccc1OC [UCP1164] |  | 0.5 (≈ 1.2 µM) |  |  |  |  |  |  |
| CCc1nc(N)nc(N)c1C#C[C@H](C)c1cc(OC)cc(-c2ccc(C(=O)O)cc2)c1 [UCP1172] | 8 (≈ 19.2 µM) | <0.03 | <0.03 | 0.06 (≈ 0.144 µM) | 0.06 (≈ 0.144 µM) | < 0.03 | 0.25 (≈ 0.6 µM) |  |
| CCc1nc(N)nc(N)c1C#CCc1cc(OC)cc(-c2ccc(C(=O)O)cc2)c1 [UCP1175] | 8 (≈ 19.9 µM) | 0.125 (≈ 0.311 µM) | 0.5 (≈ 1.24 µM) | 0.5 (≈ 1.24 µM) | 0.5 (≈ 1.24 µM) | 0.125 (≈ 0.311 µM) | 2 (≈ 4.97 µM) | IC50 (MtbDHFR [3]; IC50 (nM) MtbDHFR): 460 ± 50 nM |
| CCc1nc(N)nc(N)c1-c1ccc(Cl)cc1 [pyrimethamine] |  |  |  |  |  |  |  | inhibition of the MtbDHFR enzyme (MtbDHFR [2]): potent inhibitors; inhibition of the growth of Mtb (Mtb): fail to inhibit the growth |
